# Assay results: patent US20110183892A1 (priority 2007, published 2011)
# Read-outs that look alike come from different tables or passages of the source.
# Key:
# [1] = test system: M1 satellite virus dsRNA genome; experiment: dsRNA extraction and TAE-agarose gel of Killer yeast cells; type: cell-based; conditions: gentamicin treated Killer− cells, ~10-times more RNA loaded than control
# [2] = test system: HIV-1 −1 PRF signal; type: cell-based, human; conditions: for stimulation of HIV-1 directed −1 PRF: 5-500 μg/ml; for dose dependence of HIV-1 mediated −1 PRF: Example 2
# [3] = test system: SARS-CoV frameshift signal; type: cell-based, human
# [4] = test system: Jurkat E6-1 cells; conditions: Jurkat E6-1, 500 μg/ml
# [5] = test system: endogenous yeast "Killer" virus; experiment: Yeast Killer virus maintenance assay after serial passage; type: cell-based; conditions: serial passage every 24 h for eight days
# [6] = test system: HIV-1 strain LAI; experiment: Limit-dilution titer of infectious virus with p24 antigen capture assay; type: cell-based; conditions: Jurkat E6-1, 250 μg/ml, days 4-10 post infection
# Protocol: (A) Jurkat E6-1 cells were grown in RPMI-1640 media supplemented with 10% FBS. Cells were infected with HIV-1 (LAI) at an MOI of 0.01 in media containing gentamicin at 0, 50, 250, or 500 μg/ml. Infected or mock infected cells were maintained in the above media containing the corresponding concentration of gentamicin. Clarified viral supernatant was assayed for RT activity on days 2, 4, 6, 8, and 10 post infection. […] Results are from an average of 3 experiments with error bars corresponding to standard deviation values. (B) Clarified viral supernatants from days 4, 6, 8, and 10 above were used to perform limit-dilution assays in order to determine the level of infectious virus produced in untreated and gentamicin treated cells. A p24 antigen capture assay was used to detect virus. Results are reported as TCID50/ml vs. day post infection. The antigen capture assay was repeated with similar results while the RT activity assay was repeated twice with similar results.
# Cells and viruses. Jurkat E6-1 cells (obtained through the ATCC) were cultured in RPMI-1640 supplemented with 10% fetal bovine serum at 37° C. and 5% CO2 according to the ATCC data sheet. HIV-1 strain LAI was obtained through the NIH AIDS Research and Reference Reagent Program.
# HIV infection of Jurkat cells. All experiments were performed with Jurkat cells in 24-well plates and in duplicate. […]
# [7] = biological target: HIV-1 RT (Human immunodeficiency virus type 1 group M subtype B, UniProt P04585); experiment: Control experiments on HIV-1 RT activity
# [8] = HeLa cells, 5, 25, 50, 250 and 500 ug/ml
# [9] = Jurkat cells, 5, 25, 50, 250 and 500 ug/ml
substance,measurement,setting,value
gentamicin,presence of M1 dsRNA genome,[1],no longer present
same,HIV-1 directed −1 PRF at the concentration normally used in cell culture,"[2]; HeLa CD4+ and Jurkat cells, 50 μg/ml",increased −1 PRF was observed
same,stimulation of HIV-1 directed −1 PRF,[2]; HeLa CD4+ cells,about 40%
same,stimulation of HIV-1 directed −1 PRF,"[2]; HeLa CD4+ cells, listed as Gentamicin",up to 40%
same,dose dependence of HIV-1 mediated −1 PRF,[2]; [8],dose-dependently increased
same,dose dependence of HIV-1 mediated −1 PRF,[2]; [9],dose-dependently increased
same,stimulation of HIV-1 directed −1 PRF,[2]; Jurkat cells,about 40%
same,stimulation of HIV-1 directed −1 PRF,"[2]; Jurkat cells, listed as Gentamicin",up to 40%
same,dose dependence of SARS-CoV mediated −1 PRF,[3]; [8],dose-dependently increased
same,dose dependence of SARS-CoV mediated −1 PRF,[3]; [9],dose-dependently increased
same,cell toxicity,[4],Significant cell toxicity
same,cell toxicity,[4]; listed as Gentamicin,significant cell toxicity
same,Killer phenotype maintenance,[5]; 50 μg/ml,rapid loss of the Killer phenotype
same,Killer phenotype maintenance,[5]; 500 μg/ml,rapid loss of the Killer phenotype
same,infectious virus in cell-free supernatant,[6],no infectious virus was made
same,effect on HIV-1 RT activity,[7],did not affect HIV-1 RT activity
